According to patent publication US12227501B2, “3-amino-2-[2-(acylamino)pyridin-4-yl]-1,5,6,7-tetrahydro-4h-pyrrolo[3,2-c]pyridin-4-one as CSNK1 inhibitors” (Bayer Aktiengesellschaft, priority 2019, dated 2025):

Experiments:
Type in all cases: biochemical
[1] = biological target: T1, human CSNK1A1 (Homo sapiens (Human), UniProt P48729); test: CSNK1A1 Assay 1 (ADP-Glo, 1 μM ATP); details: substrate Btn-Ahx-SGSEGDSESGEEEG, read-out: CSNK1A1 Assay 1 IC50 [mol/l] (median)
Description: CSNK1A1-inhibitory activity of compounds of the present invention in presence of 1 μM adenosine-tri-phosphate (ATP) was quantified employing the CSNK1A1 assay as described in the following paragraphs. In essence, the enzyme activity is measured by quantification of the adenosine-di-phosphate (ADP), which is generated as a co-product of the enzyme reaction, via the “ADP-Glo™ Kinase Assay” kit from the company Promega. This detection system works as follows: In a first step the ATP not consumed in the kinase reaction is quantitatively converted to cAMP employing an adenylate cyclase (“ADP-Glo-reagent”), then the adenylate cyclase is stopped and the ADP generated in the kinase reaction converted to ATP which generates in a luciferase-based reaction a glow-luminescence signal (“Kinase Detection Reagent”). Recombinant fusion protein of N-terminal Glutathion-S-Transferase (GST) and full-length human CSNK1A1, expressed by baculovirus infected insect cells and purified via Glutathion affinity chromatography, was purchased from Life Technologies (product no. PV4174) and used as enzyme. As substrate for the kinase reaction the biotinylated peptide Btn-Ahx-[…] (C-terminus in amide form) was used which can be purchased e.g. from the company Biosyntan (Berlin-Buch, Germany).
For the assay 50 nl of a 100 fold concentrated solution of the test compound in DMSO was pipetted into a white 1536-well microtiter plate (Greiner Bio-One, Frickenhausen, Germany), 2 μL of a solution of CSNK1A1 in aqueous assay buffer [50 mM HEPES pH 7.5, 10% (v/v) glycerol, 10 mM MgCl2, 50 mM NaCl, 1 mM dithiothreitol, 0.01% (w/v) bovine serum albumin, 0.01% (v/v) Triton X-100] were added and the mixture was incubated for 15 min at 22° C. to allow pre-binding of the test compounds to the enzyme before the start of the kinase reaction. […] The concentration of CSNK1A1 was adjusted depending of the activity of the enzyme lot and was chosen appropriate to have the assay in the linear range, a typical concentration is 0.15 ng/μL. The reaction was stopped by the addition of 2.5 μL of “ADP-Glo-reagent” (1:1.5 fold diluted with water) and the resulting mixture was incubated at 22° C. for 1 h to convert the ATP not consumed in the kinase reaction completely […]. Subsequently 2.5 μL of the “kinase detection reagent” (1.2 fold more concentrated than recommended by the producer) were added, the resulting mixture was incubated at 22° C. for 1 h and then the luminescence measured with a suitable measurement instrument (e.g. Viewlux™ from Perkin-Elmer). The amount of emitted light was taken as a measure for the amount of ADP generated and thereby for the activity of the CSNK1A1.

[2] = biological target: human CSNK1D (Homo sapiens (Human), UniProt P48730); test: CSNK1D Assay (ADP-Glo, 1 μM ATP); details: read-out: CSNK1D IC50 [mol/l] (median)
Sequence of human CSNK1D (P48730 whole entry): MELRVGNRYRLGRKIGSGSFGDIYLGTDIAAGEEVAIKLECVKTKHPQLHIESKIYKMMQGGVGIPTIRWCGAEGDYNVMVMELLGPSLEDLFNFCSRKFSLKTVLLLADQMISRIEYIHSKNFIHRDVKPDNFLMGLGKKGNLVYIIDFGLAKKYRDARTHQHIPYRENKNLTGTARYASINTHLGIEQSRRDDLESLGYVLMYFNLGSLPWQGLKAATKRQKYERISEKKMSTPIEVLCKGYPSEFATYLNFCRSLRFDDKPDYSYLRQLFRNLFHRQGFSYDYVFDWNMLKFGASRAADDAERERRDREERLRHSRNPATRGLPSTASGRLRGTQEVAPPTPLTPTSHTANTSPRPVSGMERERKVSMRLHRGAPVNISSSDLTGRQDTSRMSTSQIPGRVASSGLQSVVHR
In short: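 Activity is read as ADP produced, by ADP-Glo luminescence after 1 h steps at 22 °C. The reaction uses 1 μM ATP, a biotinylated peptide and insect-cell-expressed GST–CSNK1D (about 0.5 ng/μL) in pH 7.5 HEPES buffer, with 15 min compound–enzyme preincubation.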

[3] = biological target: wild-type Epidermal Growth Factor Receptor (EGFR) (Homo sapiens (Human), UniProt P00533); test: WT-EGFR Kinase Assay (TR-FRET, 2 mM ATP); details: read-out: EGFR Wildtyp- 2 mM ATP IC50 [mol/l] (median)
Sequence of wild-type Epidermal Growth Factor Receptor (EGFR) (P00533 669-1210): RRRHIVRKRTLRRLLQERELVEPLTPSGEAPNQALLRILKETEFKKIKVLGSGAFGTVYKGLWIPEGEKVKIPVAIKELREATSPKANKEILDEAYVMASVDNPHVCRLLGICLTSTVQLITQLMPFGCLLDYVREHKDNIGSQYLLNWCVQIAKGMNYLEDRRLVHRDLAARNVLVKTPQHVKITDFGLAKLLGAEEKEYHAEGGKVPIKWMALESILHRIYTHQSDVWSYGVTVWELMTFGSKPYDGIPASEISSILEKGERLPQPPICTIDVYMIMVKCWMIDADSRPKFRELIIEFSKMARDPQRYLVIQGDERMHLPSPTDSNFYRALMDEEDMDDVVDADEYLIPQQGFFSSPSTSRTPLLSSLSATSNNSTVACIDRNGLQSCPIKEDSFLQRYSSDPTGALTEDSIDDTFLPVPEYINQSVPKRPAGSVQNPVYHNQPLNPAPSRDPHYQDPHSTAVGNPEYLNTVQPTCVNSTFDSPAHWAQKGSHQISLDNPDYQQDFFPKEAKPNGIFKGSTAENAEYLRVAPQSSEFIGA

[4] = biological target: T1, human CSNK1A1; test: CSNK1A1 High ATP Assay (ADP-Glo, 1 mM ATP); details: read-out: CSNK1A1 high ATP assay IC50 [mol/l] (median)
In short: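 Kinase activity taken as ADP generated, quantified by ADP-Glo luminescence after 1 h ATP depletion and 1 h detection at 22 °C. Enzyme is GST–full-length human CSNK1A1 (insect cell-expressed), pre-bound to compound for 15 min, with phosphopeptide substrate and 1 mM ATP.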

T1 sequence (P48729 whole entry): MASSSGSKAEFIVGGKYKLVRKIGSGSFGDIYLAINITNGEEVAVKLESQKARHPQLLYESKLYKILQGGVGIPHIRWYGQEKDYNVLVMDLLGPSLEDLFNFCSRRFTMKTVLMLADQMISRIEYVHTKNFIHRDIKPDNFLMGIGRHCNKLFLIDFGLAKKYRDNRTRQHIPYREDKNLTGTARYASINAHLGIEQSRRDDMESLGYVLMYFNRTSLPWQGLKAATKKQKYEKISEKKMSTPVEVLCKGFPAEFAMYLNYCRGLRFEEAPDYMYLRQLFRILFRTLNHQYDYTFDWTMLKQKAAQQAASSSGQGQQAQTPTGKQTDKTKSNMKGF

## CN1CCc2[nH]c(-c3ccnc(NC(=O)Cc4ccc(F)cc4)c3)c(Nc3ccccn3)c2C1=O [Example 12, 2-(4-fluorophenyl)-N-(4-{5-methyl-4-oxo-3-[(pyridin-2-yl)amino]-4,5,6,7-tetrahydro-1H-pyrrolo[3,2-c]pyridin-2-yl}pyridin-2-yl)acetamide]
[1]
  IC50: 2.32 nM
[2]
  IC50: 10.2 nM
[3]
  IC50: > 20000 nM
[4]
  IC50: 5.2 nM

## Cc1cc(CC(=O)Nc2cc(-c3[nH]c4c(c3Nc3ccccc3)C(=O)N(C)CC4)ccn2)ccc1F [Example 3, N-[4-(3-anilino-5-methyl-4-oxo-4,5,6,7-tetrahydro-1H-pyrrolo[3,2-c]pyridin-2-yl)pyridin-2-yl]-2-(4-fluoro-3-methylphenyl)acetamide]
[1]
  IC50: 4.28 nM
[2]
  IC50: 5.66 nM
[3]
  IC50: 2130 nM
[4]
  IC50: 78.4 nM

## CN1CCc2[nH]c(-c3ccnc(NC(=O)Cc4ccccc4)c3)c(Nc3ccccc3)c2C1=O [Example 2, N-[4-(3-anilino-5-methyl-4-oxo-4,5,6,7-tetrahydro-1H-pyrrolo[3,2-c]pyridin-2-yl)pyridin-2-yl]-2-phenylacetamide]
[1]
  IC50: 3.95 nM
[2]
  IC50: 5.41 nM
[3]
  IC50: 1170 nM
[4]
  IC50: 114 nM
